From patent US20230218688A1 (Zhejiang Chinese Medical University, priority 2022, published 2023) come the findings set out here.

Assay [1] relates to Lactobacillus helveticus ZJUIDS12. Kind of assay: Antibiotic susceptibility of Lactobacillus helveticus ZJUIDS12 (susceptibility paper, inhibition zone). In kind it is cell-based. Further details: key to Susceptive type: S: sensitive; I: intermediate; R: insensitive. Particulars: according to CLSI 2017.
In assay [2] the test system is Helicobacter pylori ATCC43504. As to the kind of experiment: Growth inhibition experiment on Helicobacter pylori. In kind it is cell-based.

On to `NCC[C@H](O)C(=O)N[C@@H]1C[C@H](N)[C@@H](O[C@H]2O[C@H](CN)[C@@H](O)[C@H](O)[C@H]2O)[C@H](O)[C@H]1O[C@H]1O[C@H](CO)[C@@H](O)[C@H](N)[C@H]1O` [Amikacin (AK), Amikacin], for which, in assay [1], the Susceptive type result was “S” and the “susceptibility of Lactobacillus helveticus ZJUIDS12 to the antibiotic (in words)” value (shortened to “susceptibility”) is listed as “sensitive”.
As for `CC1(C)S[C@@H]2[C@H](NC(=O)[C@H](N)c3ccccc3)C(=O)N2[C@H]1C(=O)O` [Ampicillin (AM), Ampicillin], in assay [1], the Susceptive type entry is “S” and the “susceptibility” value is on record as “sensitive”.
On the same counts, the results for `Cc1nnc(SCC2=C(C(=O)O)N3C(=O)[C@@H](NC(=O)Cn4cnnn4)[C@H]3SC2)s1` [Cefazolin(CZ), Cefazolin] are “S” and “sensitive”.
On the same counts, the results for `O=C(N[C@H](CO)[C@H](O)c1ccc([N+](=O)[O-])cc1)C(Cl)Cl` [Chloramphenicol (C), Chloramphenicol] are “S” and “sensitive”.
For the compound `CC[C@H]1OC(=O)[C@H](C)[C@@H](O[C@H]2C[C@@](C)(OC)[C@@H](O)[C@H](C)O2)[C@H](C)[C@@H](O[C@@H]2O[C@H](C)C[C@H](N(C)C)[C@H]2O)[C@](C)(O)C[C@@H](C)C(=O)[C@H](C)[C@@H](O)[C@]1(C)O` [Erythromycin (E), Erythromycin], in assay [1], the Susceptive type entry is recorded as “S” and the “susceptibility” value was “sensitive”.
On to `CCn1cc(C(=O)O)c(=O)c2cc(F)c(N3CCNCC3)cc21` [Norfloxacin (NOR), Norfloxacin], for which, in assay [1], the Susceptive type result is “S” and the “susceptibility” value is “sensitive”.
The corresponding values for `CC1(C)S[C@@H]2[C@H](NC(=O)Cc3ccccc3)C(=O)N2[C@H]1C(=O)O` [Penicillin G(P), Penicillin G] are “S” and “sensitive”.
Take `Cc1ncc([N+](=O)[O-])n1CCO` [Positive control, metronidazole]: the “Inhibition rates to Helicobacter pylori (%)” value in assay [2] (Fermentation supernatant) and in assay [2] (Suspension) was 100% throughout.
Turning to `Cc1cc(NS(=O)(=O)c2ccc(N)cc2)no1` [Sulfamethoxazole (SXT), Sulfamethoxazole], in assay [1], the Susceptive type result is “R” and the “susceptibility” value is recorded as “insensitive”.
On the same counts, the results for Gentamicin [Gentamicin (GM)] are “I” and “intermediate”.
